According to PMC9730523 (Frontiers in Immunology, 2022):

What was measured:
hMC1 [1] = target: T1, hMC1 (Homo sapiens, UniProt Q01726); assay: ERK1/2 phosphorylation assay, transfected HEK293A; format: cell-based; design: host or cells: HEK293A; settings: 5 min; p-ERK1/2, hMC1; normalised maximal efficacy at 2μM, percentage of maximal αMSH response; read-out: Top
hMC4 [2] = target: T2, hMC4 (Homo sapiens, UniProt P32245); assay: cAMP accumulation assay, transfected HEK293A; format: cell-based; settings: HEK293-A, 0.25 h, normalised maximal efficacy at 2μM, percentage of maximal αMSH response, read-out: Top
T2 construct: host or cells: HEK293A
T2 sequence (P32245 whole entry): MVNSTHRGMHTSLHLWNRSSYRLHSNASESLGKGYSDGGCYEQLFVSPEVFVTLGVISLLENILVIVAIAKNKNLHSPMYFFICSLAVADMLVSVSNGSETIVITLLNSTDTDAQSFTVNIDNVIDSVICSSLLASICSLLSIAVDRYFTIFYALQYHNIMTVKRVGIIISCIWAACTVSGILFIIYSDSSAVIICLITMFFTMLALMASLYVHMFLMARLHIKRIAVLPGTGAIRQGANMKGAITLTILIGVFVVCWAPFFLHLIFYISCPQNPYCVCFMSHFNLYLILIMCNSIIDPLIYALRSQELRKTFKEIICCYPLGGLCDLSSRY

hMC5 [3] = target: T3, hMC5 (Homo sapiens, UniProt P33032); assay: ERK1/2 phosphorylation assay, transfected HEK293A; format: cell-based; design: host or cells: HEK293A; settings: HEK293-A, 5 min; p-ERK1/2, hMC5; normalised maximal efficacy at 2μM, percentage of maximal αMSH response; read-out: Top
T3 sequence (P33032 whole entry): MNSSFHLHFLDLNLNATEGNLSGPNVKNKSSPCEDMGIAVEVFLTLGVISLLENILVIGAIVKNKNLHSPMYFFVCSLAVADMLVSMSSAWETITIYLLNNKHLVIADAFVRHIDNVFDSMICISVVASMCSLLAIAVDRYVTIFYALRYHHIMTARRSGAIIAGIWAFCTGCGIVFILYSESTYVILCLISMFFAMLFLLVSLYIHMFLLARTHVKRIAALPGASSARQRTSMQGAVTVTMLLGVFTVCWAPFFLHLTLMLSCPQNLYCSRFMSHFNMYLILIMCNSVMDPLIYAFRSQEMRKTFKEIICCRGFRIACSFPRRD

mMC1 [4] = target: T4, mMC1 (Mus musculus, UniProt Q01727); assay: ERK1/2 phosphorylation assay, transfected HEK293A; format: cell-based; design: host or cells: HEK293A; settings: HEK293-A, 5 min; p-ERK1/2, mMC1; normalised maximal efficacy at 2μM, percentage of maximal αMSH response; read-out: Top
T4 sequence (Q01727 whole entry): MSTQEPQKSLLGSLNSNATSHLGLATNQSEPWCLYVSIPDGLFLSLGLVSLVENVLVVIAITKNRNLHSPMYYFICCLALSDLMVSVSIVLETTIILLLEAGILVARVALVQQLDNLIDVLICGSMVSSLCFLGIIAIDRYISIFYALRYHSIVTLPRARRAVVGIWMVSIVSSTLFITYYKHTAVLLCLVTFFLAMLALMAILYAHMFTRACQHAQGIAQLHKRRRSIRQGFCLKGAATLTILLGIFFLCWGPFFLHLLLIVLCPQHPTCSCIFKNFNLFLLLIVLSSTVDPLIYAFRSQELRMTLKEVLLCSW

hMC4 [5] = target: T2, hMC4; assay: ERK1/2 phosphorylation assay, transfected HEK293A; format: cell-based; settings: HEK293-A, 5 min; p-ERK1/2, hMC4; normalised maximal efficacy at 2μM, percentage of maximal αMSH response; read-out: Top
mMC5 [6] = target: T5, mMC5 (Mus musculus, UniProt P41149); assay: ERK1/2 phosphorylation assay, transfected HEK293A; format: cell-based; design: host or cells: HEK293A; settings: HEK293-A, 5 min; p-ERK1/2, mMC5; normalised maximal efficacy at 2μM, percentage of maximal αMSH response; read-out: Top
T5 sequence (P41149 whole entry): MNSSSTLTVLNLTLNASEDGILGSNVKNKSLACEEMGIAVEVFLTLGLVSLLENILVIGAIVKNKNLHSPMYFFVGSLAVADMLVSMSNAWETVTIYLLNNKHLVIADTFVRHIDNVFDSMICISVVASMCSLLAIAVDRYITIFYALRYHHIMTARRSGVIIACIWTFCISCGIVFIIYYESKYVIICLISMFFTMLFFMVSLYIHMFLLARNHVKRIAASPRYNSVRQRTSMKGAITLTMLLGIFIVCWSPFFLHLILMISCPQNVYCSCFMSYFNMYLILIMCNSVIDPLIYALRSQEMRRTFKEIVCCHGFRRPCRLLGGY

mMC4 [7] = target: T6, mMC4 (Mus musculus, UniProt P56450); assay: ERK1/2 phosphorylation assay, transfected HEK293A; format: cell-based; settings: HEK293-A, 5 min; p-ERK1/2, mMC4; normalised maximal efficacy at 2μM, percentage of maximal αMSH response; read-out: Top
T6 construct: host or cells: HEK293A
T6 sequence (P56450 whole entry): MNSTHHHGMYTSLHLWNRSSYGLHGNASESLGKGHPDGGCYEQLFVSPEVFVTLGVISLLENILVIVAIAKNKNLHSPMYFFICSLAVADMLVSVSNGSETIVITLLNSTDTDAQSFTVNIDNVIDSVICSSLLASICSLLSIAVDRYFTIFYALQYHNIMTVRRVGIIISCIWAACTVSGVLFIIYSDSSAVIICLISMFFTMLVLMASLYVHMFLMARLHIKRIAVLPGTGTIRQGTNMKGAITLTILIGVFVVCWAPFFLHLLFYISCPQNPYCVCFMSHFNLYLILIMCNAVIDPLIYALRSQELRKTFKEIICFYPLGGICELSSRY

hMC5 [8] = target: T3, hMC5; assay: cAMP accumulation assay, transfected HEK293A; design: dose or concentration left out as unconfirmed; settings: HEK293-A, 0.25 h, read-out: Top
mMC4 [9] = target: T6, mMC4; assay: cAMP accumulation assay, transfected HEK293A; format: cell-based; settings: HEK293-A, 0.25 h, normalised maximal efficacy at 2μM, percentage of maximal αMSH response, read-out: Top
mMC1 [10] = target: T4, mMC1; assay: cAMP accumulation assay, transfected HEK293A; design: dose or concentration left out as unconfirmed; settings: HEK293-A, 0.25 h, read-out: Top
[11] = humans, single subcutaneous administration; cited from earlier work
mMC5 [12] = target: T5, mMC5; assay: cAMP accumulation assay, transfected HEK293A; design: dose or concentration left out as unconfirmed; settings: HEK293-A, 0.25 h, read-out: Top
hMC3 [13] = target: T7, hMC3 (Homo sapiens, UniProt P41968); assay: ERK1/2 phosphorylation assay, transfected HEK293A; format: cell-based; design: host or cells: HEK293A; settings: 5 min; p-ERK1/2, hMC3; normalised maximal efficacy at 2μM, percentage of maximal αMSH response; read-out: Top
T7 sequence (P41968 whole entry): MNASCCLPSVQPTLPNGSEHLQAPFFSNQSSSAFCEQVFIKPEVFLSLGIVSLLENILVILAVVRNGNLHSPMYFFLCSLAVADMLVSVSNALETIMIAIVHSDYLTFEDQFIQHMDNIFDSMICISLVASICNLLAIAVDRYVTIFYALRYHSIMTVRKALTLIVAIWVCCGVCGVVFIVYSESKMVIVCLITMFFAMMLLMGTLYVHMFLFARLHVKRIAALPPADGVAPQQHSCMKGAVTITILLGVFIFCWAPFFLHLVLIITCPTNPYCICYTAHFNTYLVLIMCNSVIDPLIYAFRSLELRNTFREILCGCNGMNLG

hMC1 [14] = target: T1, hMC1; assay: cAMP accumulation assay, transfected HEK293A; design: dose or concentration left out as unconfirmed; settings: HMC1, 0.25 h, read-out: Top
hMC3 [15] = target: T7, hMC3; assay: cAMP accumulation assay, transfected HEK293A; design: dose or concentration left out as unconfirmed; settings: HMC3, 0.25 h, read-out: Top

T1 sequence (Q01726 whole entry): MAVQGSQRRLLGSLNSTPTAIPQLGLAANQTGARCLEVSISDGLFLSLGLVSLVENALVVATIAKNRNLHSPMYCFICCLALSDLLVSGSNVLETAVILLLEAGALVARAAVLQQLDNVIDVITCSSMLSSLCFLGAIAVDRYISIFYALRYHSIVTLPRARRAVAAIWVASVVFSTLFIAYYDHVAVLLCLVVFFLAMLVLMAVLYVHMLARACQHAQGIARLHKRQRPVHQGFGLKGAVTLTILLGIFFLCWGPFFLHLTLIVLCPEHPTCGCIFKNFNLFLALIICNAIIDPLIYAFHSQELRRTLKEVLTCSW

Emax (hMC1 [1]): 136%
Emax at 2 µM (hMC4 [2]): 26.5%
Emax (hMC5 [3]): 62.7%
Emax (mMC1 [4]): 99.7%
Emax (hMC4 [5]): 56.1%
Emax (mMC5 [6]): 18.6%
Emax (mMC4 [7]): 80.7%
Emax (hMC5 [8]): 38.2%
Emax at 2 µM (mMC4 [9]): 75.1%
Emax (mMC1 [10]): 103%
Emax (mMC5 [12]): 14.8%
Emax (hMC3 [13]): 70.1%
Emax (hMC1 [14]): 112%
Emax (hMC3 [15]): 10.9%
Structure (SMILES): CCCC[C@H](NC(C)=O)C(=O)N[C@H]1CCC(=O)NC[C@@H](C(=O)N[C@@H](Cc2c[nH]c3ccccc23)C(N)=O)NC(=O)[C@H](CCCNC(=N)N)NC(=O)[C@@H](Cc2ccccc2)NC(=O)[C@H](Cc2c[nH]cn2)NC1=O [PL8177, Ac-Nle^1-cyclo(Glu^2-L-His^3-D-Phe^4-Arg^5-Dap^6)-Trp^7-NH2]
persisting plasma levels after administration [11]: 48 h
